Experimental data from patent US20100249175A1, “Dicationic compounds which selectively recognize G-quadruplex DNA” (priority 2005, published 2010).

Columns and labels:
[1] = test system: telomeric G-quadruplex DNA sequence d[AG3(T2AG3)3] (SEQ ID NO: 1); assay: CD titration of compounds into human telomeric G-quadruplex DNA (induced CD); format: binding
From the text: The oligonucleotides d[AG3(T2AG3)3] (SEQ ID NO: 1), d[AG3TG4AG3TG4A] (SEQ ID NO: 2), d[G4(T4G4)3] (SEQ ID NO: 3), d[(T2G4)4] (SEQ ID NO: 4), d[(GC)7] (SEQ ID NO: 5), d[[…]] (SEQ ID NO: 6), d[G2T2G2TGTG2T2G2] (SEQ ID NO: 7), d[[…]] (SEQ ID NO: 8), d[[…]] (SEQ ID NO: 9), d[[…]] (SEQ ID NO: 10), d[[…]] (SEQ ID NO: 11), d[TTAGGGT] (SEQ ID NO: 12), and d[TGGGGT] (SEQ ID NO: 13) were purchased with HPLC purification from Midland Certified Reagent Company (The Midland Certified Reagent Company, Inc., Midland, Tex., USA). The concentration of each DNA sample was determined spectrophotometrically at 260 nm using the nearest neighbor extinction coefficient.
Stock solutions of individual dicationic polyaryl compounds were prepared in double distilled water and diluted to working concentrations immediately before use with buffer. All measurements were performed at 20° C. in a 10 mM HEPES buffer (pH 7.4) containing 3 mM EDTA and 50 mM KCl, NaCl, or LiCl. Absorbance spectra were obtained on a Varian Cary 300 BIO UV-visible spectrophotometer (Varian, Inc., Palo Alto, Calif., United States of America) in a quartz cell with a 1 cm pathlength. CD spectra were recorded using a Jasco J-810 spectrapolarimeter (Jasco, Inc., Easton, Md., United States of America) in a 1-cm cell using an instrument scanning speed of 50 nm/min with a response time of 1 s. The spectra were averaged over four scans. A buffer baseline scan was collected in the same cuvette and subtracted from the average scan for each sample. Appropriate amounts of dicationic compound stock solution or DNA were added sequentially to increase the molar ratio.
When an achiral ligand binds tightly to a chiral host, such as DNA, a CD signal is induced in the wavelength region corresponding to the absorbance of the ligand. […] An additional negative band centered at 395 nm overlaps with the higher energy exciton band. […] Restriction of the rotational and translational freedom of the two molecules of the dimer relative to each other will cause an increase in the rotational strength of the induced CD band, resulting in a large ellipticity. See Allenmark, S., Chirality, 15, 409-422 (2003).
Some compounds appeared to bind to the telomeric G-quadruplex DNA sequence d[AG3(T2AG3)3] […] Relative strength of the induced CD is indicated by the number of (+) marks.

[2] = test system: human telomeric sequence d[AG3(T2AG3)3] (SEQ ID NO: 1); assay: Surface plasmon resonance, immobilized human telomeric DNA; format: binding
Procedure: Surface plasmon resonance (SPR) measurements were performed with a four-channel Biacore® 3000 optical biosensor system (Biacore International AB, Uppsala, Sweden). 5′-biotin labeled DNA was immobilized onto streptavidin-coated Biacore® SA sensor chips as previously described. See Lacy, E. R., et al., J. Amer. Chem. Soc., 124, 2153-2163 (2002); Mazur, S., et al., J. Mol. Biol., 300, 321-337 (2000); Nguyen, B., et al., Biopolymers, 63, 281-297 (2002); Wang, L., et at, Proc. Natl. Acad. Sci. USA, 97, 12-16 (2000); and Wang, L., et al., Biochemistry, 40, 2511-2521 (2001). Two flow cells were used to immobilize the
DNA oligomer samples, while a third cell was left blank as a control. The SPR studies were performed at 25° C. in a filtered, degassed, 10 mM HEPES buffer (pH 7.4) containing 200 mM KCl, 3 mM EDTA and 0.005% surfactant P20 (Biacore International AB). Compound solutions were prepared by serial dilutions from stock solution and injected from 7-mm plastic vials with pierceable plastic crimp caps.
Solutions of known concentration of 8 ranging from 2 nM to 10 μM were injected through the flow cells until a constant steady-state response was obtained. […] The instrument response (RU) in the steady-state region was determined by linear averaging over a 50 second time span. The predicted maximum response per bound compound in the steady-state region (RUmax) was determined from the DNA molecular weight, the amount of DNA on the flow cell, the compound molecular weight, and the refractive index gradient ratio of the compound and DNA, as previously described. […] To obtain the binding constants, the data were fitted to a two-site equilibrium model using KaleidaGraph (Synergy Software, Reading, Pa., United States of America) for nonlinear least square optimization of the binding parameters, where RUmax is the maximum response per bound compound and K1 and K2 are the macroscopic binding constants for a two-site binding model: […]
Surface plasmon resonance (SPR) was used to quantitatively evaluate the interaction between 8 and human telomeric DNA. […]

[3] = SPR, 25° C., HEPES buffer containing 200 mM KCl

## N=C(N)c1ccc(-c2ccc(-c3ccc(C(=N)N)o3)o2)cc1 [Compound 8, 5′-(4-Amidinophenyl)-2,2′-bifuran-5-carboxamidine]
[1]
  exciton splitting in CD spectra (in words): induced exciton splitting
[1]; G-Quadruplex Affinity
  Induced CD (exciton): +++++
[2]; SPR binding constants
  selectivity for the human telomeric quadruplex over the duplex DNA: approximately 4 fold
[2]; [3]
  K1, macroscopic binding constant, two-site model: 470000 M⁻¹
  K2, macroscopic binding constant, two-site model: 45000 M⁻¹
